IC50 data for 13 molecules are collected here from US20230150997A1, “EIF4E INHIBITORS AND USES THEREOF” (PIC Therapeutics, Inc., priority 2021, published 2023).

Each structure is given as a SMILES string.

For this experiment, the target named is T1, Human eIF4E (Homo sapiens, UniProt P06730).
T1 construct: Human eIF4E (aa 28-217) with a C-terminal His-tag; made in house
T1 sequence (P06730 28-217): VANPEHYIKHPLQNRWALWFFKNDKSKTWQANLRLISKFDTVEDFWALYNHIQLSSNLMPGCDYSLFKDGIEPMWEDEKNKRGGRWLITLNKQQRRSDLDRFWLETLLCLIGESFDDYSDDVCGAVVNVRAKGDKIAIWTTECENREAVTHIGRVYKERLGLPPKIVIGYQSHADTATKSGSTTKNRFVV
Kind of experiment: Human eIF4E/4G2 binding assay (TR-FRET). To be noted: purified human eIF4E (aa 28-217), biotin labeled 4G2 peptide, 4 hours preincubation at room temperature. The method, then:
Example 3. Compound Testing in Human eIF4E/4G2 Binding Assay
Human eIF4E (aa 28-217) with a C-terminal His-tag was expressed in E. coli in inclusion bodies. The protein was solubilized with 8 M urea and purified under denaturing conditions using nickel-charged HisTrap HP columns (GE Healthcare). The purified protein was then refolded by diluting in 20 mM Hepes pH 7.0, 0.5 M NaCl, 1 mM DTT, 1 mM EDTA, 0.5 M arginine plus 6 M urea, and then dialyzing overnight into the same buffer without the urea. The protein was further dialyzed into 20 mM Hepes, pH 6.5, 50 mM NaCl, 1 mM EDTA, 1 mM DTT, and concentrated using Hitrap SP sepharose FF columns (GE Healthcare). The concentrated protein was dialyzed into 20 mM Hepes, pH 7.0, 0.5 M NaCl, 5 mM DTT and 10% glycerol, and stored at -80° C. until use.
Test compounds (3.43 mM stock in DMSO) were diluted 2-fold in series in DMSO (10 concentration points). Compound solutions (1.2 µl/well) were added into black 384-well polypropylene microplates (Matrix, Thermal Scientific). Twenty-two microliters per well of Assay Buffer (50 mM NaPi, pH 6.5, 50 mM KCl, 1 mM DTT and 0.5 mg/ml gamma globulin) and eight microliters per well of 82.5 nM purified eIF4E in Assay Buffer were added. The samples were incubated at room temperature (20-23° C.) for 4 hours. Biotin labeled 4G2 peptide (Ac-Lys-Gln-Tyr-Asp-Arg-Glu-Phe-Leu-Leu-Asp-Phe-Gln-Phe-Met-Pro-Lys(Aha-Bio)-NH2, 1.75 µM stock in DMSO) was diluted to 0.14 µM in Assay Buffer (without DTT) and 5 µl/well was added. The samples were incubated at room temperature for 20 min. Five microliters per well of 6.4 nM Eu-streptavidin (Eu-SA, Perkin Elmer) and 80 nM Allophycocyanin (APC)-anti His antibody (Columbia Biosciences) in Assay Buffer (without DTT) were then added and the samples were incubated at room temperature for 20 min.
Assay signals were monitored by reading excitation at 340 nm and emission fluorescence at 615 nm and 665 nm on an Envision reader (Perkin Elmer). Normalized TR-FRET (time-resolved fluorescence resonance energy transfer) assay signal (Rn) was calculated by the formula: Rn = [(A-Ba-C x D)/(D-Bd)] x (Dc- Bd) • Where A is the fluorescence intensity of the sample at 665 nm, • D is the fluorescence intensity of the sample at 615 nm, • Ba and Bd are plate backgrounds at 665 nm and 615 nm, respectively, • Dc is the fluorescence intensity of 0.78 nM Eu-SA in the assay buffer at 615 nm • The cross-talk factor (C) is determined by the following formula: • C = (Ac- Ba)/(Dc-Bd) • Where Ac is the fluorescence intensity of 0.78 nM Eu-SA in the assay buffer at 665 nm.
IC50 values were calculated using xLFit program (IDBS). Table 2 below lists […] of some compounds, wherein A represents IC50 ≤ 0.5 µM; B represents 0.5 uM < IC50 ≤ 1 µM; and C represents IC50 > 1 µM.
A general note: Time-resolved FRET reads energy transfer from a long-lived donor to a nearby acceptor.
In general, IC50 refers to the point on the concentration scale where inhibition reaches its midpoint. Low values mean greater potency in that assay, high ones weaker potency in that assay. As to `CC(C)Cc1sc(Nc2ncc(-c3cccs3)cc2C(=O)O)nc1-c1cccc(OC(C)C)c1` [I-113], the IC50 is ≤ 500 nM. As to `CNCCOc1ccc(-c2nc(Nc3ncc(-c4cccs4)cc3C(=O)O)sc2CC(C)C)cc1Cl` [I-3, 2-((4-(3-chloro-4-(2-(methylamino)ethoxy)phenyl)-5-isobutylthiazol-2-yl)amino)-5-(thiophen-2-yl)nicotinic acid], the 50% inhibitory concentration (IC50) is > 1000 nM.

For the molecule `CCCOc1cccc(-c2nc(Nc3ncc(-c4cccs4)cc3C(=O)O)sc2CC(C)C)c1` [I-106], the 50% inhibitory concentration (IC50) was ≤ 500 nM. For `COc1cc(-c2nc(Nc3ncc(-c4cccs4)cc3C(=O)O)sc2CCC(C)C)ccc1C(F)(F)F` [I-88], the IC50 was ≤ 500 nM. For the molecule `COCCOc1cc(-c2nc(Nc3ncc(-c4cccs4)cc3C(=O)O)sc2CCC(C)C)ccc1Cl` [I-83], the IC50 is ≤ 500 nM. As for `COc1c(Cl)cc(-c2nc(Nc3ncc(-c4cccs4)cc3C(=O)O)sc2CC(C)C)cc1Cl` [I-4], the figure is ≤ 500 nM; as for `COc1cccc(-c2nc(Nc3ncc(-c4cccs4)cc3C(=O)O)sc2CC(C)C)c1` [I-78], ≤ 500 nM; as for `COCCOc1ccc(-c2nc(Nc3ncc(-c4cccs4)cc3C(=O)O)sc2C(C)C)cc1F` [I-31], 500 to 1000 nM.

As to `CCOc1cccc(-c2nc(Nc3ncc(-c4cccs4)cc3C(=O)O)sc2CC(C)(C)C)c1` [I-98], the concentration for half-maximal inhibition (IC50) is ≤ 500 nM. As for `COc1cc(-c2nc(Nc3ncc(-c4cccs4)cc3C(=O)O)sc2CCC(C)C)ccc1F` [I-82], the concentration for half-maximal inhibition (IC50) is ≤ 500 nM.

Regarding `COc1cc(-c2nc(Nc3ncc(-c4cccs4)cc3C(=O)O)sc2CC(C)C)ccc1Cl` [I-74], the IC50 is ≤ 500 nM.

As for `COc1cc(-c2nc(Nc3ncc(-c4cccs4)cc3C(=O)O)sc2CC(C)C)cc(C(F)(F)F)c1` [I-104, 2-((5-isobutyl-4-(3-methoxy-5-(trifluoromethyl)phenyl)thiazol-2-yl)amino)-5-(thiophen-2-yl)nicotinic acid], the IC50 was ≤ 500 nM. With `COCCOc1ccc(-c2nc(Nc3ncc(-c4cc(C)cs4)cc3C(=O)O)sc2C2CCCC2)cc1` [1-38], the concentration for half-maximal inhibition (IC50) is 500 to 1000 nM.
